According to article PMC6437697 (Journal of Medicinal Chemistry, 2019):

Experiments:
Assay in all cases: KINOMEscan
Assay type in all cases: binding
Conditions in all cases: read-out: % control activity remaining
ADCK4 = target: T1, ADCK4 (Homo sapiens, UniProt Q96D53)
T1 construct: purchased Eurofins DiscoverX KINOMEscan
T1 sequence (Q96D53 1-544): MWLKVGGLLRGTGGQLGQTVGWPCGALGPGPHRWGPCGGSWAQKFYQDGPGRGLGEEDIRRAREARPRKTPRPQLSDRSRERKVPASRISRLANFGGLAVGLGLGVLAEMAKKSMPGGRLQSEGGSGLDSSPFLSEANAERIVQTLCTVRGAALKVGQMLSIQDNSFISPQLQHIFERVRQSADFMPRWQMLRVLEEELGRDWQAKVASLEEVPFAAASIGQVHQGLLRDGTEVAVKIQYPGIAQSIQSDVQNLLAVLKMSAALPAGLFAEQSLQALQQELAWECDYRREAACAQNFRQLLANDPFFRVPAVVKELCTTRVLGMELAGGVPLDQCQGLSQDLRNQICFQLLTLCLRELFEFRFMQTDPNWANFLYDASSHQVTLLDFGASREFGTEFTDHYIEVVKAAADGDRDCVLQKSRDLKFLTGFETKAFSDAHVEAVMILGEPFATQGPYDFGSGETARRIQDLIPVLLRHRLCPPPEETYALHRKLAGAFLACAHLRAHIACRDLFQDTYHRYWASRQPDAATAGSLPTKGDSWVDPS

BRSK1 = target: T2, BRSK1 (Homo sapiens, UniProt Q8TDC3)
T2 construct: purchased Eurofins DiscoverX KINOMEscan
T2 sequence (Q8TDC3 1-778): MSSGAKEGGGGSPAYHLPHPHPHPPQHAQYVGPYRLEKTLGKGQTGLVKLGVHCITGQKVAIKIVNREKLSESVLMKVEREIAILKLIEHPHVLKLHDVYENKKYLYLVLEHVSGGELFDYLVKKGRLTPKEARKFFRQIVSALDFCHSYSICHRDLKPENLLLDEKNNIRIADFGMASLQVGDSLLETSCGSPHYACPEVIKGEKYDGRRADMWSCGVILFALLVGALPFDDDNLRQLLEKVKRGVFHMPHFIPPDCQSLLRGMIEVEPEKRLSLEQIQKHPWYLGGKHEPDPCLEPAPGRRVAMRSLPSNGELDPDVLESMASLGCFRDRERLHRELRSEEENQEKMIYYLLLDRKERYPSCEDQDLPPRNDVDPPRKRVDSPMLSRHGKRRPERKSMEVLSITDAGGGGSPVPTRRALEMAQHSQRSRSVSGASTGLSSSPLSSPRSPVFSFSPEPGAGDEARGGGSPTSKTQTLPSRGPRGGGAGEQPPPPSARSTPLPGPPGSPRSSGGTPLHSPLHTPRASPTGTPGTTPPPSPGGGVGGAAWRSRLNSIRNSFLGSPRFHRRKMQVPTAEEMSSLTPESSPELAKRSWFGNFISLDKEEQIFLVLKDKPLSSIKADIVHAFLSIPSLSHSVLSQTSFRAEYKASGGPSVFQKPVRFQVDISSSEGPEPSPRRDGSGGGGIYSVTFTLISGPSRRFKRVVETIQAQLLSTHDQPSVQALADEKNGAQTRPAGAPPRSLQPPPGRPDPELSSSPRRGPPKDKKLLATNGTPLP

TAOK3 = target: T3, TAOK3 (Homo sapiens, UniProt Q9H2K8)
T3 construct: purchased Eurofins DiscoverX KINOMEscan
T3 sequence (Q9H2K8 1-898): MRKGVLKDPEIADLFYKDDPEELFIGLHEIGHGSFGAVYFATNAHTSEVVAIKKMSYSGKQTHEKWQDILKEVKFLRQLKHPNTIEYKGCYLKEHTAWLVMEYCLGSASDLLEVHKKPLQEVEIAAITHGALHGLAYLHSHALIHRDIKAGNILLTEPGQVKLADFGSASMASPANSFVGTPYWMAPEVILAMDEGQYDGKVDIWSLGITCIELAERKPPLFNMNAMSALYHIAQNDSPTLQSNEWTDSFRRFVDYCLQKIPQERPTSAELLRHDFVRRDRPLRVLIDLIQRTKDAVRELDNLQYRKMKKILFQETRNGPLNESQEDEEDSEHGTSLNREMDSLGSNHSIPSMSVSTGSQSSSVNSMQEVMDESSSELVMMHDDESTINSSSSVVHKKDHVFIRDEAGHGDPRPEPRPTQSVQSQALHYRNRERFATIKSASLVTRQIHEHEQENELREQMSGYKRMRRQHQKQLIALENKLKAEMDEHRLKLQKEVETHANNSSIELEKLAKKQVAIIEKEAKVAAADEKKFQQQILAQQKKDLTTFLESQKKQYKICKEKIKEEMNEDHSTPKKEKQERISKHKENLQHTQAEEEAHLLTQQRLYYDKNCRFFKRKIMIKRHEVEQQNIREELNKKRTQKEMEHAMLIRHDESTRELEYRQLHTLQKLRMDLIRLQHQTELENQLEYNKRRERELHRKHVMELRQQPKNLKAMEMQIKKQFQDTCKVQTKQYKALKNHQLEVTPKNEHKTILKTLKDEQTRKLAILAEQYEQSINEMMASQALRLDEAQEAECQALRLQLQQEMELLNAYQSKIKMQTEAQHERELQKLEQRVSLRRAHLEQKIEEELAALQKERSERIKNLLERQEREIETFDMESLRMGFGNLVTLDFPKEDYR

TRKA = target: T4, TRKA (Homo sapiens, UniProt P04629)
T4 construct: purchased Eurofins DiscoverX KINOMEscan
T4 sequence (P04629 33-796): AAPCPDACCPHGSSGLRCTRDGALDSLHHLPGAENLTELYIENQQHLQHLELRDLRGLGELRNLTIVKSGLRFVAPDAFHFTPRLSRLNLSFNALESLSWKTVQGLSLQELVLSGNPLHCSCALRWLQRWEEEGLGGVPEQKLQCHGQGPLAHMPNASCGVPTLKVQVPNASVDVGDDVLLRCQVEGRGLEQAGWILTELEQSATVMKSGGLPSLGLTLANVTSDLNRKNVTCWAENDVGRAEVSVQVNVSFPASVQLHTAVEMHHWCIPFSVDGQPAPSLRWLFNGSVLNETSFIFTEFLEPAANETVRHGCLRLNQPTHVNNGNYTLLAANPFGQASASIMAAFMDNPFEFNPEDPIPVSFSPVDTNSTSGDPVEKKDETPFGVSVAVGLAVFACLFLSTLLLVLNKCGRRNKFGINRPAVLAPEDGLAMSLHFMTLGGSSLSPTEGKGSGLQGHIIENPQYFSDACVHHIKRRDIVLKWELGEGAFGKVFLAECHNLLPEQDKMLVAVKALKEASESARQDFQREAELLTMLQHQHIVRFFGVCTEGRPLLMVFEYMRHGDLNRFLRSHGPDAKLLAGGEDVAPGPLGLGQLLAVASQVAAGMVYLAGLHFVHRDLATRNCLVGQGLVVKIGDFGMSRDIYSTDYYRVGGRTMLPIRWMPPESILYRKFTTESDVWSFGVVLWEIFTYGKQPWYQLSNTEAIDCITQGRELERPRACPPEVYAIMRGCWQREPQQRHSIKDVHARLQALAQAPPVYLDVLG

`Clc1cc(NCC2CC2)c2ncc(-c3ccc4[nH]ncc4c3)n2n1` [compound 2, 6-Chloro-N-(cyclopropylmethyl)-3-(1H-indazol-5-yl)imidazo[1,2-b]pyridazin-8-amine] showed a remaining binding at 1 µM (ADCK4) of 93%, a remaining binding at 1 µM (BRSK1) of 96% and a remaining binding at 1 µM (TAOK3) of 92%. The remaining binding at 1 µM (TRKA) was 89%.
`O=C(CN1CCOCC1)N[C@H]1CC[C@H](Nc2cc(Cl)nn3c(-c4ccc5[nH]ncc5c4)cnc23)CC1` [compound 26] gave a remaining binding at 1 µM (ADCK4) of 84%, a remaining binding at 1 µM (BRSK1) of 86% and a remaining binding at 1 µM (TAOK3) of 91%. It also gave a remaining binding at 1 µM (TRKA) of 19%.
`CN1CCC(CNc2cc(Cl)nn3c(-c4cc5nc(Nc6ccccc6)[nH]c5cc4F)cnc23)CC1` [compound 31, 6-Chloro-3-(6-fluoro-2-(phenylamino)-1H-benzo[d]imidazol-5-yl)-N-((1-methylpiperidin-4-yl)methyl)imidazo[1,2-b]pyridazin-8-amine] showed a remaining binding at 1 µM (ADCK4) of 77%, a remaining binding at 1 µM (BRSK1) of 100% and a remaining binding at 1 µM (TAOK3) of 77%. The remaining binding at 1 µM (TRKA) was 96%.
